Experiments:
[1] = target: T1, CK1α (Homo sapiens, UniProt P48729+Q96SW2); assay: Western-blot assay of substrate protein degradation in hPBMCs, CK1α; format: cell-based; settings: 24 hours of compound treatment, compounds tested at 50 nM and 500 nM (concentration of the table not stated)
T1 construct: endogenous in cells; host or cells: hPBMCs (Milecell Biotechnologies)

[2] = target: T2, human Cereblon WT GST-tagged protein (Homo sapiens, UniProt Q96SW2); assay: CRBN-binding affinity by HTRF (CEREBLON BINDING kit); settings: HTRF inhibitory activity, CEREBLON BINDING kit; read-out: HTRF IC50
T2 construct: purchased CISBIO 64BDCRBNPEH

[3] = test system: NCI-H1975; assay: Tumor cell proliferation inhibition (CellTiter-Meiluncell Luminescent Cell Viability Assay), NCI-H1975; settings: Homo sapiens, NCI-H1975, 96 h, read-out: inhibitory activity (IC50, nM) against tumor cells proliferation, H1975
[4] = target: T3, IKZF2 (Homo sapiens, UniProt Q96SW2+Q9UKS7); assay: Western-blot assay of substrate protein degradation in hPBMCs, IKZF2; format: cell-based; settings: 24 hours of compound treatment, compounds tested at 50 nM and 500 nM (concentration of the table not stated)
T3 construct: endogenous in cells; host or cells: hPBMCs (Milecell Biotechnologies)

[5] = target: T4, WEE1 (Homo sapiens, UniProt P30291+Q96SW2); assay: Western-blot assay of substrate protein degradation in hPBMCs, WEE1; format: cell-based; settings: 24 hours of compound treatment, compounds tested at 50 nM and 500 nM (concentration of the table not stated)
T4 construct: endogenous in cells; host or cells: hPBMCs (Milecell Biotechnologies)

[6] = test system: CAL-62; assay: Tumor cell proliferation inhibition (CellTiter-Meiluncell Luminescent Cell Viability Assay), CAL-62; settings: Homo sapiens, CAL-62, 96 h, read-out: inhibitory activity (IC50, nM) against tumor cells proliferation, CAL-62
[7] = test system: Human breast cancer cells (MDA-MB-231); assay: Tumor cell proliferation inhibition (CellTiter-Meiluncell Luminescent Cell Viability Assay), MDA-MB-231; settings: MDA-MB-231, 96 h, read-out: inhibitory activity (IC50, nM) against tumor cells proliferation, MDA-MB-231
Description: The tumor cells used herein were cultured in a cell culture medium listed in table 2 at 37°C in an incubator with 5% CO2. Prior to experimentation, all cell lines used were correctly identified by STR profiling, and tested negative for mycoplasma contamination using a mycoplasma detection kit through routine screenings.
On the following day, the test compounds of the present disclosure were subjected to serial dilution. […] Subsequently, 0.5 µL of the test compound dilution was transferred into the 96-well plate containing the cells, with each well containing 100 µL of cell culture medium. […] Into the 96-well plate, the diluted test compounds and corresponding detection reagents were added, resulting in final test compound concentrations of 500 nM and 10 nM, respectively. The experimental procedure is described below using the diluted 2 µM test compound as an example.
After the cells were treated with the compounds of the present disclosure for a specified period (the treatment durations were shown in Table 3), the cell viability assay reagent was added to the culture medium according to the kit's instructions to determine cell viability. […] All controls were treated using the same procedure as the compounds of the present disclosure. The growth inhibition curves for the compounds of the present disclosure were plotted using Prism GraphPad software, and the IC50 values were calculated therefrom.

[8] = target: T5, IKZF1 (Homo sapiens, UniProt Q13422+Q96SW2); assay: Western-blot assay of substrate protein degradation in hPBMCs, IKZF1; format: cell-based; settings: 24 hours of compound treatment, compounds tested at 50 nM and 500 nM (concentration of the table not stated)
T5 construct: endogenous in cells; host or cells: hPBMCs (Milecell Biotechnologies)

[9] = test system: Human acute T lymphocytic leukemia cells (Molt-4); assay: Tumor cell proliferation inhibition (CellTiter-Meiluncell Luminescent Cell Viability Assay), Molt-4; settings: MOLT-4, 96 h, read-out: inhibitory activity (IC50, nM) against tumor cells proliferation, Molt 4
[10] = target: T6, GSPT1 (Homo sapiens, UniProt P15170+Q96SW2); assay: Western-blot assay of substrate protein degradation in hPBMCs, GSPT1; format: cell-based; settings: 24 hours of compound treatment, compounds tested at 50 nM and 500 nM (concentration of the table not stated)
T6 construct: endogenous in cells; host or cells: hPBMCs (Milecell Biotechnologies)

[11] = test system: Jurkat; assay: Tumor cell proliferation inhibition (CellTiter-Meiluncell Luminescent Cell Viability Assay), Jurkat; settings: Homo sapiens, 96 h, read-out: inhibitory activity (IC50, nM) against tumor cells proliferation, Jurkat
[12] = target: T7, IKZF3 (Homo sapiens, UniProt Q96SW2+Q9UKT9); assay: Western-blot assay of substrate protein degradation in hPBMCs, IKZF3; format: cell-based; settings: 24 hours of compound treatment, compounds tested at 50 nM and 500 nM (concentration of the table not stated)
T7 construct: endogenous in cells; host or cells: hPBMCs (Milecell Biotechnologies)

[13] = test system: MM.1R; assay: Tumor cell proliferation inhibition (CellTiter-Meiluncell Luminescent Cell Viability Assay), MM.1R; settings: Homo sapiens, 96 h, read-out: inhibitory activity (IC50, nM) against tumor cells proliferation, MM.1R

T7 sequence (Q9UKT9 whole entry): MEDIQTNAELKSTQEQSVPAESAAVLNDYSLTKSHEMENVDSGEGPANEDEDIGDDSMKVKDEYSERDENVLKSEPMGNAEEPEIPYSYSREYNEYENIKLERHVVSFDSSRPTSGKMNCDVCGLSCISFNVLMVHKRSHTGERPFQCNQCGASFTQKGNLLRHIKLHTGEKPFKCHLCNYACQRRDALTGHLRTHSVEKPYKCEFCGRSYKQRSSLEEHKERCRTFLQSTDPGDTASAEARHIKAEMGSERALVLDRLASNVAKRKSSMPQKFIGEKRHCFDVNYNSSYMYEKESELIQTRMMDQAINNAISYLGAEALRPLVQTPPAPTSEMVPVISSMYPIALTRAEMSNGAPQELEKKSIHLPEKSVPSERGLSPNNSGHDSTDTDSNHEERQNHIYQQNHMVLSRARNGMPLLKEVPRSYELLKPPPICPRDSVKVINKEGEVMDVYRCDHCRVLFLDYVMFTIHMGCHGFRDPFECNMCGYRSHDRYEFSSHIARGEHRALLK
T7 sequence (Q96SW2 whole entry): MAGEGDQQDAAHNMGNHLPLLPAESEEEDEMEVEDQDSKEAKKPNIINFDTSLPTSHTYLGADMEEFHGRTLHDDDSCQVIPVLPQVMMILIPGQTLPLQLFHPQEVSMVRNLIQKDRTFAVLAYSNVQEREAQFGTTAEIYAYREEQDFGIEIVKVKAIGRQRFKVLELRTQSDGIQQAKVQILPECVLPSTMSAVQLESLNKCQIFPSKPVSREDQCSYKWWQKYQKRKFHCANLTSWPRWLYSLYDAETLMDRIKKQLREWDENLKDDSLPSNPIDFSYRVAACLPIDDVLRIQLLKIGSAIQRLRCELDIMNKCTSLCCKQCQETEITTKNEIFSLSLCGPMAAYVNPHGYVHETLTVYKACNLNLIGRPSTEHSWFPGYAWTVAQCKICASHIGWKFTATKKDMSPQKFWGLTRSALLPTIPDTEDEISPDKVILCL
T7 sequence (Q16531 whole entry partner): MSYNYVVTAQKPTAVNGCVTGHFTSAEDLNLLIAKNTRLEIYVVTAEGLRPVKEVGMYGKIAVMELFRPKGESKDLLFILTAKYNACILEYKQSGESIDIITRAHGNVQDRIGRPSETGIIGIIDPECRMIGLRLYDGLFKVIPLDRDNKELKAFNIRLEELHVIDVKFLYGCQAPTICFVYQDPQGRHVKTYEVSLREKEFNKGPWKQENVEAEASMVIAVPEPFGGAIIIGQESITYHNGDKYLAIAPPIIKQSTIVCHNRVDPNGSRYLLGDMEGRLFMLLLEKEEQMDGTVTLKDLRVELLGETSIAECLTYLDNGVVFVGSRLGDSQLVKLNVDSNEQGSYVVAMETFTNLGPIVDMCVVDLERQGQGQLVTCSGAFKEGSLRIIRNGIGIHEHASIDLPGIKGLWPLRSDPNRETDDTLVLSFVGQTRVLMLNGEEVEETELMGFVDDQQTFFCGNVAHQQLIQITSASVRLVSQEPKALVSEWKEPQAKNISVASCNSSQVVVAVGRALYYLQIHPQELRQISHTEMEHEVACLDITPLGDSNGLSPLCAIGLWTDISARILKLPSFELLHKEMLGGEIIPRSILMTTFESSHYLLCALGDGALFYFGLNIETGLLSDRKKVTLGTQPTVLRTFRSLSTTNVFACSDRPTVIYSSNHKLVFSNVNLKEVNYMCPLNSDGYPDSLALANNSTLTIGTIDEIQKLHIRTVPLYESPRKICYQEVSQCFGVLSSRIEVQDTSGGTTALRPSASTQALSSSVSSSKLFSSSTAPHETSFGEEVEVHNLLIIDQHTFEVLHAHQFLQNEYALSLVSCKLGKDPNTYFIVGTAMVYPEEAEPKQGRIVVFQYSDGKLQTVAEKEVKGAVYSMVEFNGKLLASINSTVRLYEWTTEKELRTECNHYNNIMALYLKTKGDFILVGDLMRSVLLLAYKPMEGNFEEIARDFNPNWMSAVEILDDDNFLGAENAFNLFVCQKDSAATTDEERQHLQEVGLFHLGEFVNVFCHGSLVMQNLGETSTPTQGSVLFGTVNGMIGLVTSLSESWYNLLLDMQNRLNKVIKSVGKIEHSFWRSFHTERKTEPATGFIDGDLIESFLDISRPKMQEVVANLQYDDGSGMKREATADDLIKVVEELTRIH
T6 sequence (P15170 whole entry): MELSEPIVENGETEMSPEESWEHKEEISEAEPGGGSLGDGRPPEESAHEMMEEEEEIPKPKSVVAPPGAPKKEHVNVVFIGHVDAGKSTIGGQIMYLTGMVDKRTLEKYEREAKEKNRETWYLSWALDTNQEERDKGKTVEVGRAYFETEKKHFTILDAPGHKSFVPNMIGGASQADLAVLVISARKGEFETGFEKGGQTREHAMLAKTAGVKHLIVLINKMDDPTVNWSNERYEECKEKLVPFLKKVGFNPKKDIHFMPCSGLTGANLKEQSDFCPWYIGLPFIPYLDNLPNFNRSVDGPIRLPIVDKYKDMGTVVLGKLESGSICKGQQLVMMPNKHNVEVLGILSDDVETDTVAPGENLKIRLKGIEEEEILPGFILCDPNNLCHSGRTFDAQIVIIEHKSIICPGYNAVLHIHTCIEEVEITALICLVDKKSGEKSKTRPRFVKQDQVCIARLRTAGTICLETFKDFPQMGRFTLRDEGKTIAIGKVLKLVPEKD
T6 sequence (Q96SW2 whole entry): as the sequence (Q96SW2 whole entry) above
T6 sequence (Q16531 whole entry partner): as the sequence (Q16531 whole entry partner) above
T3 sequence (Q9UKS7 whole entry): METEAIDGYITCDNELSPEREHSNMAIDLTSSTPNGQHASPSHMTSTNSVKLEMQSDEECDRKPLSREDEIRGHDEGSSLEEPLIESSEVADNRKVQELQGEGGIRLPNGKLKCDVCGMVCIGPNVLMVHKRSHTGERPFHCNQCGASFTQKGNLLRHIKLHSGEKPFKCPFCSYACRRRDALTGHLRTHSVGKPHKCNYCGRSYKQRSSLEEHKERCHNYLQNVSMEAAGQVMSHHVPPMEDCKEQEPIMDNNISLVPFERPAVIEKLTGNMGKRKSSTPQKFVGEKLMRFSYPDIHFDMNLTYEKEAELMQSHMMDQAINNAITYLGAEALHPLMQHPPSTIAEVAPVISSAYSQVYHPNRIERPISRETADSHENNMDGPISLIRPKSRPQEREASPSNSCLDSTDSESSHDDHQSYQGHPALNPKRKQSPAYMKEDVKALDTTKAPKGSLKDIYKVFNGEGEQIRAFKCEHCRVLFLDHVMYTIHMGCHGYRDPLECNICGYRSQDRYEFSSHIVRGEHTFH
T3 sequence (Q96SW2 whole entry): as the sequence (Q96SW2 whole entry) above
T3 sequence (Q16531 whole entry partner): as the sequence (Q16531 whole entry partner) above
T2 sequence (Q96SW2 whole entry): as the sequence (Q96SW2 whole entry) above
T1 sequence (P48729 whole entry): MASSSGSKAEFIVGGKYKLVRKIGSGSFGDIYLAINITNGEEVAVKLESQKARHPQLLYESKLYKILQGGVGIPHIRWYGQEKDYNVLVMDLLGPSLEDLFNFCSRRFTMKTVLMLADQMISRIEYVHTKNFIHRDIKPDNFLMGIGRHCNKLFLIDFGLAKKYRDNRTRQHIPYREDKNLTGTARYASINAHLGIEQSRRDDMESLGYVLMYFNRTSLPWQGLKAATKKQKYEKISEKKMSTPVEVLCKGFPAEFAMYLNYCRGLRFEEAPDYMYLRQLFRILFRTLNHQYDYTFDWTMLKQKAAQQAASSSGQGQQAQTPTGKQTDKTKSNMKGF
T1 sequence (Q96SW2 whole entry): as the sequence (Q96SW2 whole entry) above
T1 sequence (Q16531 whole entry partner): as the sequence (Q16531 whole entry partner) above
T5 sequence (Q13422 whole entry): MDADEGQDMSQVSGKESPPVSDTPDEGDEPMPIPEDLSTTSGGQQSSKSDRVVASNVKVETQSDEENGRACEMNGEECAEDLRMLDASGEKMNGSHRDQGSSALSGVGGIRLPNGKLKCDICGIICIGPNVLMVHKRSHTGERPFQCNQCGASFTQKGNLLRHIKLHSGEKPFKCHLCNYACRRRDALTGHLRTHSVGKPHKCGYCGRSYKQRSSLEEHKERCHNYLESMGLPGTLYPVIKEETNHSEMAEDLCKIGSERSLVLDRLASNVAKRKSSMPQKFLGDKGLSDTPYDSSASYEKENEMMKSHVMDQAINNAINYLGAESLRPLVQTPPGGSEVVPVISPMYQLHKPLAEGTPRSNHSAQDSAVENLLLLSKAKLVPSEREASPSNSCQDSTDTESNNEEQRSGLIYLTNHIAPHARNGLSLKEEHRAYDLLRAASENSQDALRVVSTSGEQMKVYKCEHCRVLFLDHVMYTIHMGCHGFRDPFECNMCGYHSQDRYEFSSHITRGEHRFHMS
T5 sequence (Q96SW2 whole entry): as the sequence (Q96SW2 whole entry) above
T5 sequence (Q16531 whole entry partner): as the sequence (Q16531 whole entry partner) above

SMILES | IC50 [2] [nM] | IC50 [3] [nM] | IC50 [6] [nM] | IC50 [7] [nM] | IC50 [9] [nM] | IC50 [11] [nM] | IC50 [13] [nM] | CK1a substrate protein remaining % [1] | IKZF2 substrate protein remaining % [4] | Weel substrate protein remaining % [5] | IKZF 1 substrate protein remaining % [8] | GSPT1 substrate protein remaining % [10] | IKZF3 substrate protein remaining % [12]
O=C1CCC(N2Cc3cc(CN4CCN(c5cccc(Cl)c5Cl)CC4)c(F)cc3C2=O)C(=O)N1 (stereo not drawn) [GT-04527, 3-(5-((4-(2,3-dichlorophenyl)piperazin-1-yl)methyl)-6-fluoro-1-oxoisoindolin-2-yl)piperidine-2,6-dione] |  | 10 to 50 | 1 to 5 | 10 to 50 | 1 to 5 | 500 to 1000 | 5 to 10 | A (0% ≤ substrate protein remaining % ≤ 80%) | A (0% ≤ substrate protein remaining % ≤ 80%) | A (0% ≤ substrate protein remaining % ≤ 80%) | B (80%< substrate protein remaining %≤ 100%) | A (0% ≤ substrate protein remaining % ≤ 80%) | A (0% ≤ substrate protein remaining % ≤ 80%)
Cc1cccc(N2CCN(Cc3ccc4c(c3)CN(C3CCC(=O)NC3=O)C4=O)CC2)n1 (stereo not drawn) [GT-04530, 3-(5-((4-(6-methylpyridin-2-yl)piperazin-1-yl)methyl)-1-oxoisoindolin-2-yl)piperidine-2,6-dione] | 500 to 1000 | 100 to 500 | 10 to 50 | 50 to 100 | 10 to 50 | 5 to 10 | 10 to 50 | A (0% ≤ substrate protein remaining % ≤ 80%) | A (0% ≤ substrate protein remaining % ≤ 80%) | A (0% ≤ substrate protein remaining % ≤ 80%) | A (0% ≤ substrate protein remaining % ≤ 80%) | A (0% ≤ substrate protein remaining % ≤ 80%) | A (0% ≤ substrate protein remaining % ≤ 80%)
O=C1CCC(N2Cc3cc(CN4CCN(c5ccc(F)cn5)CC4)ccc3C2=O)C(=O)N1 (stereo not drawn) [GT-04531, 3-(5-((4-(5-fluoropyridin-2-yl)piperazin-1-yl)methyl)-1-oxoisoindolin-2-yl)piperidine-2,6-dione] | 500 to 1000 | 100 to 500 | 10 to 50 | 100 to 500 | 10 to 50 | 5 to 10 | 10 to 50 | A (0% ≤ substrate protein remaining % ≤ 80%) | A (0% ≤ substrate protein remaining % ≤ 80%) | A (0% ≤ substrate protein remaining % ≤ 80%) | A (0% ≤ substrate protein remaining % ≤ 80%) | A (0% ≤ substrate protein remaining % ≤ 80%) | A (0% ≤ substrate protein remaining % ≤ 80%)
O=C1CCC(N2Cc3cc(CN4CC=C(c5cccc(Cl)c5Cl)CC4)ccc3C2=O)C(=O)N1 (stereo not drawn) [GT-04550, 3-(5-((4-(2,3-dichlorophenyl)-3,6-dihydropyridin-1(2H)-yl)methyl)-1-oxoisoindolin-2-yl)piperidine-2,6-dione] | < 500 | 1 to 5 | < 1 | 1 to 5 | < 1 | < 1 | < 1 | A (0% ≤ substrate protein remaining % ≤ 80%) | A (0% ≤ substrate protein remaining % ≤ 80%) | A (0% ≤ substrate protein remaining % ≤ 80%) | A (0% ≤ substrate protein remaining % ≤ 80%) | A (0% ≤ substrate protein remaining % ≤ 80%) | A (0% ≤ substrate protein remaining % ≤ 80%)
O=C1CCC(N2Cc3cc(CN4CCC(c5cccc(Cl)c5Cl)CC4)ccc3C2=O)C(=O)N1 (stereo not drawn) [GT-04551, 3-(5-((4-(2,3-dichlorophenyl)piperidin-1-yl)methyl)-1-oxoisoindolin-2-yl)piperidine-2,6-dione] | 500 to 1000 | 5 to 10 | 1 to 5 | 10 to 50 | 1 to 5 | < 1 | 1 to 5 | A (0% ≤ substrate protein remaining % ≤ 80%) | A (0% ≤ substrate protein remaining % ≤ 80%) | A (0% ≤ substrate protein remaining % ≤ 80%) | A (0% ≤ substrate protein remaining % ≤ 80%) | A (0% ≤ substrate protein remaining % ≤ 80%) | A (0% ≤ substrate protein remaining % ≤ 80%)

Now from value to molecule, other results behind:

IC50 [2] [nM] | IC50 [3] [nM] | IC50 [6] [nM] | IC50 [7] [nM] | IC50 [9] [nM] | IC50 [11] [nM] | IC50 [13] [nM] | SMILES | CK1a substrate protein remaining % [1] | IKZF2 substrate protein remaining % [4] | Weel substrate protein remaining % [5] | IKZF 1 substrate protein remaining % [8] | GSPT1 substrate protein remaining % [10] | IKZF3 substrate protein remaining % [12]
500 to 1000 | 50 to 100 | 10 to 50 | 50 to 100 | 5 to 10 | 50 to 100 | 5 to 10 | O=C1CCC(N2Cc3cc(CN4CCN(c5cccc(F)c5F)CC4)ccc3C2=O)C(=O)N1 (stereo not drawn) [GT-04515, 3-(5-((4-(2,3-difluorophenyl)piperazin-1-yl)methyl)-1-oxoisoindolin-2-yl)piperidine-2,6-dione] | A (0% ≤ substrate protein remaining % ≤ 80%) | A (0% ≤ substrate protein remaining % ≤ 80%) | A (0% ≤ substrate protein remaining % ≤ 80%) | A (0% ≤ substrate protein remaining % ≤ 80%) | A (0% ≤ substrate protein remaining % ≤ 80%) | A (0% ≤ substrate protein remaining % ≤ 80%)
500 to 1000 | 50 to 100 | 5 to 10 | 50 to 100 | 1 to 5 | 1 to 5 | 1 to 5 | O=C1CCC(N2Cc3cc(CN4CCN(c5cc(Cl)c(Cl)cn5)CC4)ccc3C2=O)C(=O)N1 (stereo not drawn) [GT-04533, 3-(5-((4-(4,5-dichloropyridin-2-yl)piperazin-1-yl)methyl)-1-oxoisoindolin-2-yl)piperidine-2,6-dione] | A (0% ≤ substrate protein remaining % ≤ 80%) | A (0% ≤ substrate protein remaining % ≤ 80%) | A (0% ≤ substrate protein remaining % ≤ 80%) | A (0% ≤ substrate protein remaining % ≤ 80%) | A (0% ≤ substrate protein remaining % ≤ 80%) | A (0% ≤ substrate protein remaining % ≤ 80%)
500 to 1000 | 100 to 500 | 10 to 50 | 100 to 500 | 5 to 10 | 5 to 10 | 100 to 500 | Cc1cc(N2CCN(Cc3ccc4c(c3)CN(C3CCC(=O)NC3=O)C4=O)CC2)cs1 (stereo not drawn) [GT-04549, 3-(5-((4-(5-methylthiophen-3-yl)piperazin-1-yl)methyl)-1-oxoisoindolin-2-yl)piperidine-2,6-dione] | A (0% ≤ substrate protein remaining % ≤ 80%) | A (0% ≤ substrate protein remaining % ≤ 80%) | A (0% ≤ substrate protein remaining % ≤ 80%) | A (0% ≤ substrate protein remaining % ≤ 80%) | A (0% ≤ substrate protein remaining % ≤ 80%) | A (0% ≤ substrate protein remaining % ≤ 80%)
500 to 1000 |  | 10 to 50 |  | 10 to 50 | 10 to 50 | 10 to 50 | O=C1CCC(N2Cc3cc(CN4CCC(c5ccnc(Cl)c5Cl)CC4)ccc3C2=O)C(=O)N1 (stereo not drawn) [GT-04560, 3-(5-((4-(2,3-dichloropyridin-4-yl)piperidin-1-yl)methyl)-1-oxoisoindolin-2-yl)piperidine-2,6-dione] | A (0% ≤ substrate protein remaining % ≤ 80%) | A (0% ≤ substrate protein remaining % ≤ 80%) | A (0% ≤ substrate protein remaining % ≤ 80%) | A (0% ≤ substrate protein remaining % ≤ 80%) | A (0% ≤ substrate protein remaining % ≤ 80%) | A (0% ≤ substrate protein remaining % ≤ 80%)

— patent EP4745137A1 (Gluetacs Therapeutics (Shanghai) Co., Ltd., priority 2023, dated 2025)
